Measured values reported in PMC5573328, “Cyclooxygenase-2 contributes to oxidopamine-mediated neuronal inflammation and injury via the prostaglandin E2 receptor EP2 subtype” (Scientific Reports, 2017).

Biological target: T1, PGE2 receptor EP2 subtype (Mus musculus, UniProt Q62053)
T1 construct: gene Ptger2; endogenous receptor in Neuro-2a cells
Experiment: TR-FRET cAMP assay in Neuro-2a cells (agonist dose-response)
Format: cell-based

T1 sequence (Q62053 whole entry): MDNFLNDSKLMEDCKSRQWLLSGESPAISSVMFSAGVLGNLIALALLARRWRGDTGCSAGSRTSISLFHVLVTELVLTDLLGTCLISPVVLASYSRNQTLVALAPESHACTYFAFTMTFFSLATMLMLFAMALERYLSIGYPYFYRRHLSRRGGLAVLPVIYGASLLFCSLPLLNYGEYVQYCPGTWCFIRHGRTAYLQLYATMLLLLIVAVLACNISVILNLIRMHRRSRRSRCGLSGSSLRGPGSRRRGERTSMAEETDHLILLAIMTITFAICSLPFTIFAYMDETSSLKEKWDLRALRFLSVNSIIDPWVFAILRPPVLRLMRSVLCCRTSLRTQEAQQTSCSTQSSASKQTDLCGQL

EC50: 80 nM
Structure (SMILES): CCCC1([C@H](O)C/C=C/[C@H]2[C@H](O)CC(=O)[C@@H]2CCCCCCC(=O)OC)CCC1 [butaprost]
